Laboratory results published in ChEMBL document CHEMBL2429757, “Discovery of a novel series of potent non-nucleoside inhibitors of hepatitis C virus NS5B” (J Med Chem, 2013).

Assay: Thermal aqueous solubility of the compound at pH 6.4 by high throughput assay
Type: physicochemical
Settings: buffer

solubility: < 1 µg/mL
Compound: COc1c(/C=C/c2ccc(NS(C)(=O)=O)cc2)cc(-c2ccc[nH]c2=O)cc1C(C)(C)C
